Laboratory results taken from patent US20260262643A1, “HERBICIDAL BENZOXAZINES” (FMC CORPORATION, priority 2022, published 2026).

Key:
[1] = system: ragweed; experiment: Test A preemergence; assay type: in vivo, Ambrosia artemisiifolia
Procedure, shortened: (§1)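 Weeds and crops in loam–sand blend were sprayed preemergence onto soil or postemergence at 2–10 cm (one- to two-leaf stage). Test chemicals were in a non-phytotoxic solvent with surfactant. After 10 days in the greenhouse, injury was rated visually against untreated controls on a 0 (no effect) to 100 (complete control) scale.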

[2] = system: foxtail, giant; experiment: Test A postemergence; assay type: in vivo, Setaria faberi; details: postemergence, 10 days; for Foxtail, Giant plant response rating: 125 g ai/ha, 0 to 100 scale, 0 no effect, 100 complete control; for Plant response rating, Foxtail, Giant: 500 g ai/ha, visual injury, 0 to 100 scale (0 no effect, 100 complete control)
Procedure, shortened: as §1

[3] = system: corn; experiment: Test A postemergence; assay type: in vivo, Zea mays; details: postemergence, 10 days; for Corn plant response rating: 125 g ai/ha, 0 to 100 scale, 0 no effect, 100 complete control; for Plant response rating, Corn: 500 g ai/ha, visual injury, 0 to 100 scale (0 no effect, 100 complete control)
Procedure, shortened: as §1

[4] = system: pigweed, palmer; experiment: Test A preemergence; assay type: in vivo, Amaranthus palmeri
Procedure, shortened: as §1

[5] = system: oat, wild; experiment: Test A postemergence; assay type: in vivo, Avena fatua; details: postemergence, 10 days; for Oat, Wild plant response rating: 125 g ai/ha, 0 to 100 scale, 0 no effect, 100 complete control; for Plant response rating, Oat, Wild: 500 g ai/ha, visual injury, 0 to 100 scale (0 no effect, 100 complete control)
Procedure, shortened: as §1

[6] = system: wheat; experiment: Test A preemergence; assay type: in vivo, Triticum aestivum
Procedure, shortened: as §1

[7] = system: ryegrass, Italian; experiment: Test A postemergence; assay type: in vivo, Lolium multiflorum; details: postemergence, 10 days; for Ryegrass, Italian plant response rating: 125 g ai/ha, 0 to 100 scale, 0 no effect, 100 complete control; for Plant response rating, Ryegrass, Italian: 500 g ai/ha, visual injury, 0 to 100 scale (0 no effect, 100 complete control)
Procedure, shortened: as §1

[8] = system: wheat; experiment: Test A postemergence; assay type: in vivo, Triticum aestivum; details: postemergence, 10 days; for Wheat plant response rating: 125 g ai/ha, 0 to 100 scale, 0 no effect, 100 complete control; for Plant response rating, Wheat: 500 g ai/ha, visual injury, 0 to 100 scale (0 no effect, 100 complete control)
Procedure, shortened: as §1

[9] = system: soybean; experiment: Test A preemergence; assay type: in vivo, Glycine max
Procedure, shortened: as §1

[10] = system: blackgrass; experiment: Test A postemergence; assay type: in vivo, Alopecurus myosuroides; details: postemergence, 10 days; for Blackgrass plant response rating: 125 g ai/ha, 0 to 100 scale, 0 no effect, 100 complete control; for Plant response rating, Blackgrass: 500 g ai/ha, visual injury, 0 to 100 scale (0 no effect, 100 complete control)
Procedure, shortened: as §1

[11] = system: goosegrass; experiment: Test A preemergence; assay type: in vivo, Eleusine indica
Procedure, shortened: as §1

[12] = system: oat, wild; experiment: Test A preemergence; assay type: in vivo, Avena fatua
Procedure, shortened: as §1

[13] = system: blackgrass; experiment: Test A preemergence; assay type: in vivo, Alopecurus myosuroides
Procedure, shortened: as §1

[14] = system: ragweed; experiment: Test A postemergence; assay type: in vivo, Ambrosia artemisiifolia; details: postemergence, 10 days; for Ragweed plant response rating: 125 g ai/ha, 0 to 100 scale, 0 no effect, 100 complete control; for Plant response rating, Ragweed: 500 g ai/ha, visual injury, 0 to 100 scale (0 no effect, 100 complete control)
Procedure, shortened: as §1

[15] = system: barnyardgrass; experiment: Test B flooded paddy test; assay type: in vivo, Echinochloa crus-galli; details: 250 g ai/ha, Flood, 13 days, 0 to 100 scale (0 no effect, 100 complete control)
Procedure, shortened: (§2)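 Application into standing water (3 cm above soil) at the two-leaf stage; flood depth held constant. Evaluation: day 13, visual comparison with controls, 0 = no injury, 100 = complete control.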

[16] = system: corn; experiment: Test A preemergence; assay type: in vivo, Zea mays
Procedure, shortened: as §1

[17] = system: foxtail, giant; experiment: Test A preemergence; assay type: in vivo, Setaria faberi
Procedure, shortened: as §1

[18] = system: sedge, umbrella; experiment: Test B flooded paddy test; assay type: in vivo, Cyperus difformis; details: 250 g ai/ha, Flood, 13 days, 0 to 100 scale (0 no effect, 100 complete control)
Procedure, shortened: as §2

[19] = system: rice; experiment: Test B flooded paddy test; assay type: in vivo, Oryza sativa; details: 250 g ai/ha, Flood, 13 days, 0 to 100 scale (0 no effect, 100 complete control)
Procedure, shortened: as §2

[20] = system: kochia; experiment: Test A preemergence; assay type: in vivo, Bassia scoparia
Procedure, shortened: as §1

[21] = system: galium; experiment: Test A postemergence; assay type: in vivo, Galium aparine; details: postemergence, 10 days; for Galium plant response rating: 125 g ai/ha, 0 to 100 scale, 0 no effect, 100 complete control; for Plant response rating, Galium: 500 g ai/ha, visual injury, 0 to 100 scale (0 no effect, 100 complete control)
Procedure, shortened: as §1

[22] = system: pigweed, palmer; experiment: Test A postemergence; assay type: in vivo, Amaranthus palmeri; details: postemergence, 10 days; for Pigweed, Palmer plant response rating: 125 g ai/ha, 0 to 100 scale, 0 no effect, 100 complete control; for Plant response rating, Pigweed, Palmer: 500 g ai/ha, visual injury, 0 to 100 scale (0 no effect, 100 complete control)
Procedure, shortened: as §1

[23] = system: soybean; experiment: Test A postemergence; assay type: in vivo, Glycine max; details: postemergence, 10 days; for Soybean plant response rating: 125 g ai/ha, 0 to 100 scale, 0 no effect, 100 complete control; for Plant response rating, Soybean: 500 g ai/ha, visual injury, 0 to 100 scale (0 no effect, 100 complete control)
Procedure, shortened: as §1

[24] = system: kochia; experiment: Test A postemergence; assay type: in vivo, Bassia scoparia; details: postemergence, 10 days; for Kochia plant response rating: 125 g ai/ha, 0 to 100 scale, 0 no effect, 100 complete control; for Plant response rating, Kochia: 500 g ai/ha, visual injury, 0 to 100 scale (0 no effect, 100 complete control)
Procedure, shortened: as §1

[25] = system: horseweed; experiment: Test A postemergence; assay type: in vivo, Erigeron canadensis; details: postemergence, 10 days; for Horseweed plant response rating: 125 g ai/ha, 0 to 100 scale, 0 no effect, 100 complete control; for Plant response rating, Horseweed: 500 g ai/ha, visual injury, 0 to 100 scale (0 no effect, 100 complete control)
Procedure, shortened: as §1

[26] = system: ryegrass, Italian; experiment: Test A preemergence; assay type: in vivo, Lolium multiflorum
Procedure, shortened: as §1

[27] = system: ducksalad; experiment: Test B flooded paddy test; assay type: in vivo, Heteranthera limosa; details: 250 g ai/ha, Flood, 13 days, 0 to 100 scale (0 no effect, 100 complete control)
Procedure, shortened: as §2

[28] = system: goosegrass; experiment: Test A postemergence; assay type: in vivo, Eleusine indica; details: postemergence, 10 days; for Goosegrass plant response rating: 125 g ai/ha, 0 to 100 scale, 0 no effect, 100 complete control; for Plant response rating, Goosegrass: 500 g ai/ha, visual injury, 0 to 100 scale (0 no effect, 100 complete control)
Procedure, shortened: as §1

[29] = 125 g ai/ha, visual injury after 10 days, 0 to 100 scale, 0 is no effect, 100 is complete control
[30] = 500 g ai/ha, 0 to 100 scale (0 no effect, 100 complete control), 10 days

Structure (SMILES): CC(C)c1ncn(-c2ccc(O)c(C(=O)N3C[C@H](C)Oc4c(Cl)cccc43)c2)n1 [Compound 105]
- Plant response rating, Ragweed [1, 29]: 0
- Plant response rating, Ragweed [1, 30]: 0
- Foxtail, Giant plant response rating [2]: 20
- Plant response rating, Foxtail, Giant [2]: 80
- Corn plant response rating [3]: 20
- Plant response rating, Corn [3]: 50
- Plant response rating, Pigweed, Palmer [4, 29]: 30
- Plant response rating, Pigweed, Palmer [4, 30]: 90
- Oat, Wild plant response rating [5]: 70
- Plant response rating, Oat, Wild [5]: 70
- Plant response rating, Wheat [6, 29]: 0
- Plant response rating, Wheat [6, 30]: 10
- Ryegrass, Italian plant response rating [7]: 0
- Plant response rating, Ryegrass, Italian [7]: 20
- Wheat plant response rating [8]: 0
- Plant response rating, Wheat [8]: 10
- Plant response rating, Soybean [9, 29]: 0
- Plant response rating, Soybean [9, 30]: 0
- Blackgrass plant response rating [10]: 30
- Plant response rating, Blackgrass [10]: 30
- Plant response rating, Goosegrass [11, 29]: 60
- Plant response rating, Goosegrass [11, 30]: 100
- Plant response rating, Oat, Wild [12, 29]: 70
- Plant response rating, Oat, Wild [12, 30]: 70
- Plant response rating, Blackgrass [13, 29]: 10
- Plant response rating, Blackgrass [13, 30]: 20
- Ragweed plant response rating [14]: 0
- Plant response rating, Ragweed [14]: 0
- Plant response rating, Barnyardgrass [15]: 0
- Plant response rating, Corn [16, 29]: 0
- Plant response rating, Corn [16, 30]: 0
- Plant response rating, Foxtail, Giant [17, 29]: 70
- Plant response rating, Foxtail, Giant [17, 30]: 100
- Plant response rating, Sedge, Umbrella [18]: 0
- Plant response rating, Rice [19]: 0
- Plant response rating, Kochia [20, 29]: 50
- Plant response rating, Kochia [20, 30]: 90
- Galium plant response rating [21]: 60
- Plant response rating, Galium [21]: 70
- Pigweed, Palmer plant response rating [22]: 40
- Plant response rating, Pigweed, Palmer [22]: 60
- Soybean plant response rating [23]: 70
- Plant response rating, Soybean [23]: 100
- Kochia plant response rating [24]: 90
- Plant response rating, Kochia [24]: 90
- Horseweed plant response rating [25]: 0
- Plant response rating, Horseweed [25]: 0
- Plant response rating, Ryegrass, Italian [26, 29]: 40
- Plant response rating, Ryegrass, Italian [26, 30]: 80
- Plant response rating, Ducksalad [27]: 0
- Goosegrass plant response rating [28]: 0
- Plant response rating, Goosegrass [28]: 50

Structure (SMILES): CCOc1ccc(-n2cnc(C(C)C)n2)cc1C(=O)N1C[C@H](C)Oc2c(Cl)cccc21 [Compound 106]
- Plant response rating, Ragweed [1, 29]: 30
- Plant response rating, Ragweed [1, 30]: 100
- Foxtail, Giant plant response rating [2]: 90
- Plant response rating, Foxtail, Giant [2]: 100
- Corn plant response rating [3]: 60
- Plant response rating, Corn [3]: 90
- Plant response rating, Pigweed, Palmer [4, 29]: 100
- Plant response rating, Pigweed, Palmer [4, 30]: 100
- Oat, Wild plant response rating [5]: 30
- Plant response rating, Oat, Wild [5]: 60
- Plant response rating, Wheat [6, 29]: 0
- Plant response rating, Wheat [6, 30]: 40
- Ryegrass, Italian plant response rating [7]: 20
- Plant response rating, Ryegrass, Italian [7]: 80
- Wheat plant response rating [8]: 20
- Plant response rating, Wheat [8]: 40
- Plant response rating, Soybean [9, 29]: 50
- Plant response rating, Soybean [9, 30]: 100
- Blackgrass plant response rating [10]: 60
- Plant response rating, Blackgrass [10]: 80
- Plant response rating, Goosegrass [11, 29]: 100
- Plant response rating, Goosegrass [11, 30]: 100
- Plant response rating, Oat, Wild [12, 29]: 20
- Plant response rating, Oat, Wild [12, 30]: 90
- Plant response rating, Blackgrass [13, 29]: 0
- Plant response rating, Blackgrass [13, 30]: 0
- Ragweed plant response rating [14]: 50
- Plant response rating, Ragweed [14]: 70
- Plant response rating, Barnyardgrass [15]: 55
- Plant response rating, Corn [16, 29]: 10
- Plant response rating, Corn [16, 30]: 50
- Plant response rating, Foxtail, Giant [17, 29]: 100
- Plant response rating, Foxtail, Giant [17, 30]: 100
- Plant response rating, Sedge, Umbrella [18]: 90
- Plant response rating, Rice [19]: 15
- Plant response rating, Kochia [20, 29]: 50
- Plant response rating, Kochia [20, 30]: 100
- Galium plant response rating [21]: 70
- Plant response rating, Galium [21]: 100
- Pigweed, Palmer plant response rating [22]: 70
- Plant response rating, Pigweed, Palmer [22]: 90
- Soybean plant response rating [23]: 100
- Plant response rating, Soybean [23]: 100
- Kochia plant response rating [24]: 90
- Plant response rating, Kochia [24]: 90
- Horseweed plant response rating [25]: 10
- Plant response rating, Horseweed [25]: 80
- Plant response rating, Ryegrass, Italian [26, 29]: 40
- Plant response rating, Ryegrass, Italian [26, 30]: 100
- Plant response rating, Ducksalad [27]: 10
- Goosegrass plant response rating [28]: 70
- Plant response rating, Goosegrass [28]: 90
